# Test results published in the supplement of paper PMC10307832.
# Assays:
# Assay in all cases: relative viability (nuclei count vs DMSO), 5 days (fraction); higher = more cells survive
# BMX-IN-1 + Foretinib = compound: C=CC(=O)Nc1cc(-n2c(=O)ccc3cnc4ccc(-c5ccc(NS(C)(=O)=O)cc5)cc4c32)ccc1C [BMX-IN-1] + COc1cc2c(Oc3ccc(NC(=O)C4(C(=O)Nc5ccc(F)cc5)CC4)cc3F)ccnc2cc1OCCCN1CCOCC1 [Foretinib] (partner 0.25 µM)
# How it was run: (§1)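 Lung cancer cell lines were pin-tool dosed in 1536-well plates on the day after seeding, with either a lone drug or a fixed anchor-drug dose plus five library-drug doses (not always all listed) in √10 steps. Nuclei were counted on 4× images after 5 days. Relative viability is the ratio of treated-well to vehicle-well nuclei counts, with each value a median of duplicate plates.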
# Ibrutinib + Pemetrexed = compound: C=CC(=O)N1CCC[C@@H](n2nc(-c3ccc(Oc4ccccc4)cc3)c3c(N)ncnc32)C1 [Ibrutinib] + Nc1nc2[nH]cc(CCc3ccc(C(=O)N[C@@H](CCC(=O)O)C(=O)O)cc3)c2c(=O)[nH]1 [Pemetrexed] (partner 0.2 µM)
# How it was run: as §1
# PAC-1 + Alpelisib = compound: C=CCc1cccc(/C=N/NC(=O)CN2CCN(Cc3ccccc3)CC2)c1O [PAC-1] + Cc1nc(NC(=O)N2CCC[C@H]2C(N)=O)sc1-c1ccnc(C(C)(C)C(F)(F)F)c1 [Alpelisib] (partner 2 µM)
# How it was run: as §1
# PAC-1 + Navitoclax = compound: C=CCc1cccc(/C=N/NC(=O)CN2CCN(Cc3ccccc3)CC2)c1O [PAC-1] + CC1(C)CCC(c2ccc(Cl)cc2)=C(CN2CCN(c3ccc(C(=O)NS(=O)(=O)c4ccc(N[C@H](CCN5CCOCC5)CSc5ccccc5)c(S(=O)(=O)C(F)(F)F)c4)cc3)CC2)C1 [Navitoclax] (partner 0.5 µM)
# How it was run: as §1
Cell Line,relative viability (BMX-IN-1 + Foretinib; first compound 0.02 µM),relative viability (BMX-IN-1 + Foretinib; first compound 0.2 µM),relative viability (BMX-IN-1 + Foretinib; first compound 0.6325 µM),relative viability (BMX-IN-1 + Foretinib; first compound 2 µM),relative viability (Ibrutinib + Pemetrexed; first compound 0.005 µM),relative viability (Ibrutinib + Pemetrexed; first compound 0.01581 µM),relative viability (Ibrutinib + Pemetrexed; first compound 0.05 µM),relative viability (Ibrutinib + Pemetrexed; first compound 0.1581 µM),relative viability (Ibrutinib + Pemetrexed; first compound 0.5 µM),relative viability (PAC-1 + Alpelisib; first compound 0.02 µM),relative viability (PAC-1 + Alpelisib; first compound 0.06325 µM),relative viability (PAC-1 + Alpelisib; first compound 0.2 µM),relative viability (PAC-1 + Alpelisib; first compound 2 µM),relative viability (PAC-1 + Navitoclax; first compound 0.02 µM),relative viability (PAC-1 + Navitoclax; first compound 0.06325 µM),relative viability (PAC-1 + Navitoclax; first compound 0.2 µM),relative viability (PAC-1 + Navitoclax; first compound 2 µM)
LC-2-ad,0.878,0.926,0.975,0.946,0.279,0.272,0.274,0.258,0.293,0.942,0.845,0.791,0.887,0.464,0.427,0.35,0.331
NCI-H1975,0.938,1.08,1.01,0.93,0.292,0.28,0.315,0.277,0.309,0.597,0.678,0.621,0.642,1.12,1.2,1.12,1.06
NCI-H1793,0.856,0.856,0.656,0.699,0.526,0.877,0.664,0.515,0.501,0.681,0.615,0.894,0.621,0.453,0.46,0.535,0.461
HCC-366,1.03,0.962,1.01,0.886,0.259,0.247,0.307,0.241,0.704,0.409,0.52,0.335,0.437,1.13,1.01,1.1,1.09
NCI-H2347,0.826,1.03,1.36,0.854,0.454,0.4,0.434,0.462,0.463,1.08,1.13,0.992,1.05,0.817,0.871,0.698,0.865
NCI-H2405,1.04,1.1,1.11,1.03,1.01,0.97,–,–,1.06,0.811,0.9,0.774,0.873,0.891,0.969,0.855,1.08
NCI-H1666,0.959,1.04,1.03,0.935,0.716,0.984,0.793,0.859,0.871,0.917,0.971,1.06,0.993,1.14,0.915,0.933,1.04
EPLC-272H,0.851,0.759,0.622,0.592,0.317,0.325,0.412,0.268,0.344,–,0.96,0.817,0.764,–,1.09,1,1.04
LXF-289,1.08,1.03,1.06,1,0.936,0.927,0.915,0.81,1.01,1.1,1.02,1.06,1.01,0.944,0.948,0.932,0.927
LOU-NH91,0.938,–,1.01,0.942,0.426,0.404,0.449,0.377,0.543,0.706,0.739,0.692,0.738,0.651,0.718,0.672,0.673
NCI-H1944,0.972,0.83,0.976,0.905,0.624,0.514,0.643,0.518,0.629,0.78,0.849,0.813,0.752,1.03,1.04,0.954,1.04
NCI-H460,1.22,1.09,1.11,1.06,0.0608,0.0607,0.0632,0.0616,0.1,0.354,0.534,0.433,0.327,1.1,1.14,0.922,1.09
NCI-H596,0.953,1.25,0.872,0.714,0.499,0.487,0.482,0.409,0.543,0.428,0.561,0.472,0.446,0.887,0.932,0.951,0.951
NCI-H322M,1.13,0.958,0.967,0.941,0.659,0.572,0.605,0.537,0.536,0.7,0.857,0.794,0.911,1.23,1.27,1.28,1.23
H3255,0.859,0.989,0.925,0.99,0.511,0.553,0.456,0.557,0.407,0.823,0.78,0.702,0.717,0.544,0.537,0.561,0.595
COR-L23,1.18,1.1,1.19,0.914,0.211,0.179,0.204,0.198,0.235,0.715,0.812,0.693,0.816,0.874,0.984,0.908,0.999
NCI-H2126,1.15,1.21,1.32,1.25,0.509,0.653,0.717,0.671,0.69,0.756,0.729,0.717,0.703,0.884,0.886,0.87,0.854
NCI-H1993,0.882,0.816,0.731,0.755,0.444,0.58,0.609,0.567,0.597,0.701,0.645,0.678,0.672,0.85,0.814,0.837,0.95
NCI-H1915,1.16,1.25,1.12,1.07,0.532,0.599,0.587,0.513,0.715,1.04,1.08,0.991,1.02,0.449,0.794,0.751,0.767
